# Test results reported in patent publication US20240058311A1, “USE OF SMO INHIBITOR IN PREPARATION OF DRUG FOR PREVENTING, DELAYING OR A[…] STENOSIS OF ART[…]” (JINAN UNIVERSITY, priority 2022, published 2024).
# What was measured:
# TNF-α [1] = assay: Immunohistochemistry of TNF-α in vascular tissue around the fistula; assay type: in vivo, rat; settings: 1 mg/kg/day i.p., vs DM group (FIG. 13)
# Method: (§1) The paraffin-embedded tissue sections were stained with HE. Blood vessel tissue samples were dewaxed and rehydrated, and antigen retrieval and IHC staining were carried out. Tissue sections were blocked at room temperature for at least 1 hour and incubated overnight with antibodies of TNF-α, MCP1, IL-6, and SMO at 4° C. After careful cleaning, tissue sections were detected using a DAB-HRP method and observed with a microscope. Quantitative analysis was carried out according to the percentage of […] cells and the staining intensity.
# MCP-1 [2] = assay: ELISA of MCP-1 in HUVEC culture supernatant; assay type: cell-based, human; settings: HUVECs treated with 10 μM, ELISA (FIG. 8C)
# Method: (§2) HUVECs were inoculated into a 6-well plate and treated with glucose of different concentrations. After 48 hours, the supernatant was collected, and the expression of inflammatory cytokines TNF-α, MCP-1. and IL-6 in the supernatant was detected using TNF-α, MCP-1 and IL-6 ELISA kits according to instructions of the kits, respectively.
# diabetic AVF rats [3] = assay: Ultrasonic examination of AVF in diabetic AVF rats; assay type: in vivo, rat; settings: 1 mg/kg/day i.p.
# Method: (§3) Male SD rats which were aged 6-8 weeks and weighed 200-250 g were purchased from Beijing Vital River Laboratory Animal Technology Co., Ltd. In order to induce diabetes, the rats fasted overnight. Streptozotocin (STZ) (US, sigma, S0130-1G) (65 mg/kg) was dissolved in the citric acid buffer solution (0.1 M citric acid and 0.1 M sodium citrate) and single injected intraperitoneally into the abdominal cavity of the rats. The control group was administrated with an equal volume of the mediator-sodium citrate buffer (pH 4.5). Three days after the STZ injection, SD rats whose fasting-blood glucose (FPG) was greater than or equal to 300 mg/dL measured by Roche glucometer (Roche, Shanghai, China, LKBIO1500) were considered to have diabetes and used in follow-up experiments (FIG. 10).
# After the construction of the diabetic model. SD rats were used to construct the AVF model. Rats were anesthetized by intraperitoneal injection of chloral hydrate (0.3 mL/100 g) and placed on the operating table during the operation. The iliac vascular area was exposed by cutting a 3 cm incision along the left inguinal fold and retracting abdominal muscle tissue and other soft tissue. The operation was carried out under a microscope, and the iliac artery and vein were separated from the surrounding fascia and nerves.
# MCP-1 [4] = assay: ELISA of MCP-1 in peripheral blood plasma of rats; assay type: in vivo, rat; settings: 1 mg/kg/day i.p., vs DM group (FIG. 14B)
# Method: (§4) Peripheral blood samples of rats were collected, and plasma was separated. The concentration of cytokines (TNF-α, MCP-1, and IL-6) in plasma was determined using an ELISA kit (Jiangsu Enzyme Immune Industrial Co., Ltd., China).
# (§5) Weight and blood glucose of rats were measured every week during the experiment, peripheral blood was extracted at specific time points (0, 1, and 14 weeks) for analysis, and AVF tissues were isolated at the end of the experiment for further analysis.
# MCP-1 [5] = assay: Western blot of MCP-1 in high glucose-treated HUVECs; assay type: cell-based, human; settings: western blot (FIG. 7D, 7G)
# PECs = assay: Apoptosis detection in cultured PECs under high glucose; assay type: cell-based; settings: high glucose conditions (FIG. 6E)
# IL-6 [6] = assay: ELISA of IL-6 in HUVEC culture supernatant; assay type: cell-based, human; settings: HUVECs treated with 10 μM, ELISA (FIG. 8A)
# Method: as §2
# MCP-1 [7] = settings: HUVECs
# Method: (§8) The total RNA was extracted from HUVECs by the Trizol method. The cDNA was synthesized using Evo M-MLV RT Premix premix for qPCR. Fluorescence quantitative PCR was carried out using gene-specific primers (Table 1) and SYBR® Green Premix Pro Taq HS qPCR Kit. The relative mRNA expression quantity was calculated by 2^−ΔΔCT method.
# [8] = Blood glucose level of diabetic AVF rats; assay type: in vivo, rat; settings: 1 mg/kg/day intraperitoneal, DM+Cyc vs DM group (FIG. 10)
# Method: as §3
# (§6) After the construction of the diabetic model. SD rats were used to construct the AVF model. Rats were anesthetized by intraperitoneal injection of chloral hydrate (0.3 mL/100 g) and placed on the operating table during the operation. […]
# as §5
# TNF-α [9] = assay: Western blot of TNF-α in high glucose-treated HUVECs; assay type: cell-based, human; settings: western blot (FIG. 7D, 7F)
# MCP-1 [10] = assay: Immunohistochemistry of MCP-1 in vascular tissue around the fistula; assay type: in vivo, rat; settings: 1 mg/kg/day i.p., vs DM group (FIG. 13)
# Method: as §1
# [11] = Body weight of diabetic AVF rats; assay type: in vivo, rat; settings: 1 mg/kg/day intraperitoneal, DM+Cyc vs DM group (FIG. 9)
# Method: as §3, §6, §5
# SMO [12] = settings: HUVECs, high glucose; 10 μM; compared with Vis and Gla at the same dosage (FIG. 5A)
# Method: as §8
# TNF-α [13] = assay: ELISA of TNF-α in peripheral blood plasma of rats; assay type: in vivo, rat; settings: 1 mg/kg/day i.p., vs DM group (FIG. 14A)
# Method: as §4, §5
# IL-6 [14] = assay: Western blot of IL-6 in vascular endothelial cells from rat AVF tissue; assay type: in vivo; settings: vascular endothelial cells isolated from rat AVF tissue, 1 mg/kg/day i.p. (FIG. 14D, 14E)
# Method: (§7) After the experiment was finished, the AVF tissues of the rats were collected and digested with enzymes to separate vascular endothelial cells. The vascular endothelial cells were lysed with the mixture liquid of RIPA lysis buffer and the phosphatase inhibitor and centrifuged to collect the supernatant. The protein concentration was measured, and the protein samples were prepared. Electrophoresis was carried out, and the membrane was transferred at 260 mA for 60 minutes. The transferred PVDF membranes were soaked with TBST buffer containing 5% skimmed milk powder, blocked at room temperature at a rotation rate of 60 rpm for 1 hour, and gently washed with TBST buffer 3 times, each time lasting 8-10 minutes. The corresponding diluents of primary antibodies (SMO, Cascpase3, TNF-α, MCP-1, and IL-6) were added, where the dilution ratio was determined according to the requirements of each antibody, and the PVDF membranes were incubated overnight in a shaker at 4° C. and cleaned with TBST buffer 3 times the next day, each time lasting 8-10 minutes. […] Development: Luminescent liquid A and liquid B were mixed according to the ratio of 1:1, the residual water on the PVDF membranes was gently absorbed with filter papers, the mixed luminescent liquid was uniformly dropped on the PVDF membranes, and the western blot results were analyzed on a gel imager.
# HUVECs [15] = assay: Lactate dehydrogenase (LDH) assay in HUVECs under high glucose; assay type: cell-based, human; settings: HG, after intervention with Cyc (FIG. 6C)
# Method: HUVECs were inoculated in a 6-well plate (1×10^6 cells/well) and treated in different glucose conditions. After 48 hours of culture, the supernatant was collected, and the LDH activity was analyzed using an LDH cytotoxicity assay kit.
# diabetic AVF rats [16] = assay: Hematoxylin-eosin staining of vascular tissue at AVF anastomosis; assay type: in vivo, rat; settings: HE staining at AVF anastomosis, 1 mg/kg/day i.p., vs DM group (FIG. 12)
# Method: as §1, §3
# After the construction of the diabetic model. […]
# SMO [17] = assay: Western blot of SMO in vascular endothelial cells from rat AVF tissue; assay type: in vivo; settings: vascular endothelial cells isolated from rat AVF tissue, 1 mg/kg/day i.p. (FIG. 14D, 14H)
# Method: as §7
# SMO [18] = assay: Immunohistochemistry of SMO in vascular tissue around the fistula; assay type: in vivo, rat; settings: 1 mg/kg/day i.p., vs DM group (FIG. 13)
# Method: as §1
# MCP-1 [19] = assay: Western blot of MCP-1 in vascular endothelial cells from rat AVF tissue; assay type: in vivo; settings: vascular endothelial cells isolated from rat AVF tissue, 1 mg/kg/day i.p. (FIG. 14D, 14G)
# Method: as §7
# Cleaved caspase 3 = assay: Immunohistochemistry of Cleaved caspase 3 in vascular tissue around the fistula; assay type: in vivo, rat; settings: 1 mg/kg/day i.p., vs DM group (FIG. 13)
# HUVECs [20] = assay: Apoptosis detection (AnnexinV-FITC/PI) in HUVECs under high glucose; assay type: cell-based, human; settings: high glucose conditions (FIG. 6D)
# Method: HUVECs were inoculated into a 6-well plate and treated with different concentrations of glucose. After 48 hours of culture, the cells were collected, washed twice with cold PBS, and suspended to 1×10^6 cells/mL with a labeling buffer (1×), and 5 μL of AnnexinV-FITC and 5 μL of propidium iodide (PI) were added. The cells were mixed evenly and incubated at room temperature away from light for about 15 minutes. 300 μL of labeling buffer was added to each tube, and samples were loaded within 1 hour. Annexin-V and PI were used to label early and late apoptotic cells, respectively. […] PI is a kind of nucleic acid dye, cannot penetrate the whole cell membrane, but can penetrate the cell membrane of cells in the middle and late apoptosis and dead cells to stain the nucleus.
# IL-6 [21] = assay: Western blot of IL-6 in high glucose-treated HUVECs; assay type: cell-based, human; settings: western blot (FIG. 7D, 7E)
# IL-6 [22] = assay: Immunohistochemistry of IL-6 in vascular tissue around the fistula; assay type: in vivo, rat; settings: 1 mg/kg/day i.p., vs DM group (FIG. 13)
# Method: as §1
# TNF-α [23] = assay: Western blot of TNF-α in vascular endothelial cells from rat AVF tissue; assay type: in vivo; settings: vascular endothelial cells isolated from rat AVF tissue, 1 mg/kg/day i.p. (FIG. 14D, 14F)
# Method: as §7
# IL-6 [24] = settings: HUVECs
# Method: as §8
# IL-6 [25] = assay: ELISA of IL-6 in peripheral blood plasma of rats; assay type: in vivo, rat; settings: 1 mg/kg/day i.p., vs DM group (FIG. 14C)
# Method: as §4, §5
# TNF-α [26] = settings: HUVECs
# Method: as §8
# TNF-α [27] = assay: ELISA of TNF-α in HUVEC culture supernatant; assay type: cell-based, human; settings: HUVECs treated with 10 μM, ELISA (FIG. 8B)
# Method: as §2
smiles,measurement,setting,value
"CC1=C2C[C@H]3[C@@H](CC=C4C[C@@H](O)CC[C@@]43C)[C@@H]2CC[C@]12O[C@@H]1C[C@H](C)CN[C@H]1[C@H]2C [Cyc, Cyclopamine]",expression level of TNF-α (immunohistochemistry),TNF-α [1],significantly inhibited
same,level of MCP-1 in cell culture supernatant,MCP-1 [2],decreased
same,blood flow,"diabetic AVF rats [3]; color Doppler ultrasound near AVF anastomotic stoma, DM+Cyc vs untreated DM group (FIG. 11A)",faster
same,diameter of blood vessels in the fistula,"diabetic AVF rats [3]; ultrasound at AVF anastomosis, DM+Cyc vs untreated group (FIG. 11B)",increased significantly
same,MCP-1 in plasma,MCP-1 [4],significantly reduced
same,expression of MCP-1 at protein level,MCP-1 [5],inhibit
same,apoptosis of cultured PECs,PECs,significantly reduced
same,level of IL-6 in cell culture supernatant,IL-6 [6],decreased
same,expression of MCP-1 at mRNA level,MCP-1 [7]; glucose 5.5-40 mM (FIG. 7C),inhibit
same,inhibiting the expression of MCP-1,"MCP-1 [7]; high glucose, 10 μM, compared with Vis and Gla at the same dosage (FIG. 5E)",best effect
same,blood glucose level,[8],lower than that of the DM group
same,expression of TNF-α at protein level,TNF-α [9],inhibit
same,expression level of MCP-1 (immunohistochemistry),MCP-1 [10],significantly inhibited
same,body weight,[11],remained stable over time
same,inhibiting the expression of SMO,SMO [12],best effect
same,TNF-α in plasma,TNF-α [13],significantly reduced
same,expression level of IL-6 (western blot),IL-6 [14],significantly reduced
same,LDH in HUVECs,HUVECs [15],reduced
same,intima of blood vessels,diabetic AVF rats [16],improved
same,lumen of blood vessels,diabetic AVF rats [16],significantly enlarged
same,expression level of SMO (western blot),SMO [17],significantly reduced
same,expression level of SMO (immunohistochemistry),SMO [18],significantly inhibited
same,expression level of MCP-1 (western blot),MCP-1 [19],significantly reduced
same,expression level of Cleaved caspase 3 (immunohistochemistry),Cleaved caspase 3,significantly inhibited
same,apoptosis of HUVECs,HUVECs [20],significantly reduced
same,expression of IL-6 at protein level,IL-6 [21],inhibit
same,expression level of IL-6 (immunohistochemistry),IL-6 [22],significantly inhibited
same,expression level of TNF-α (western blot),TNF-α [23],significantly reduced
same,expression of IL-6 at mRNA level,IL-6 [24]; glucose 5.5-40 mM (FIG. 7A),inhibit
same,inhibiting the expression of IL-6,"IL-6 [24]; high glucose, 10 μM, compared with Vis and Gla at the same dosage (FIG. 5C)",best effect
same,IL-6 in plasma,IL-6 [25],significantly reduced
same,expression of TNF-α at mRNA level,TNF-α [26]; glucose 5.5-40 mM (FIG. 7B),inhibit
same,inhibiting the expression of TNF-α,"TNF-α [26]; high glucose, 10 μM, compared with Vis and Gla at the same dosage (FIG. 5D)",best effect
same,level of TNF-α in cell culture supernatant,TNF-α [27],decreased
